Where “and” joins values, the source holds several entries; their conditions need not be identical. Equal values may be shown once.
Experiments:
[1] = system: adenoid cystic carcinomas of the salivary gland; settings: despite increased expression of c-kit; cited from earlier work
CYP2C19 = CYP2C19 (Homo sapiens, UniProt P33261); settings: off-target effect; cited from earlier work
CYP2A6 = biological target: T1, CYP2A6 (Homo sapiens, UniProt P11509); settings: off-target effect; cited from earlier work
T1 sequence (P11509 1-494): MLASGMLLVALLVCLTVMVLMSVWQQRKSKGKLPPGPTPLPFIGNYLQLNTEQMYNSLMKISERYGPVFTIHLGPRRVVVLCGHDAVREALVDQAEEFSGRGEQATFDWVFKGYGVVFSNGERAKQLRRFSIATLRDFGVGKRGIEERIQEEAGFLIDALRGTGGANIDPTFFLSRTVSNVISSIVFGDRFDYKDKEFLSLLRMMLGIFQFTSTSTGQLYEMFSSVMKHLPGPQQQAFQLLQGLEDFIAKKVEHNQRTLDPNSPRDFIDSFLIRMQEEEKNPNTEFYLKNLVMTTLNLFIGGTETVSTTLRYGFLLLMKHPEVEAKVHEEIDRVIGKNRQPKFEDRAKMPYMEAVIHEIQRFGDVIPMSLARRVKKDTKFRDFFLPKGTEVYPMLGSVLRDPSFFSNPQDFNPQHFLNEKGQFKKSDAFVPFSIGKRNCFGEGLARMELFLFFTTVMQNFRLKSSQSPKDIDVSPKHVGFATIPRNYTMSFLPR

ER+/HER2− metastatic BC = assay: Retrospective study: tumor response and survival of metastatic BC patients treated with CDK4/6 inhibitors; type: in vivo, human; settings: palbociclib N=10, ribociclib N=14; for Non-responders (NR): at least 20% increase in sum of diameters of target tumors after 6 months; for Responders (R): at least 30% decrease in sum of diameters of target tumors after 6 months
Description: Here we describe a retrospective study analyzing plasma-based metabolites from a baseline (BL) sample and after 2-months (2M) of treatment of 24 women with ER+/HER2− metastatic BC treated with CDK4/6 inhibitors, palbociclib or ribociclib.

CYP2C19, sequence (P33261 whole entry): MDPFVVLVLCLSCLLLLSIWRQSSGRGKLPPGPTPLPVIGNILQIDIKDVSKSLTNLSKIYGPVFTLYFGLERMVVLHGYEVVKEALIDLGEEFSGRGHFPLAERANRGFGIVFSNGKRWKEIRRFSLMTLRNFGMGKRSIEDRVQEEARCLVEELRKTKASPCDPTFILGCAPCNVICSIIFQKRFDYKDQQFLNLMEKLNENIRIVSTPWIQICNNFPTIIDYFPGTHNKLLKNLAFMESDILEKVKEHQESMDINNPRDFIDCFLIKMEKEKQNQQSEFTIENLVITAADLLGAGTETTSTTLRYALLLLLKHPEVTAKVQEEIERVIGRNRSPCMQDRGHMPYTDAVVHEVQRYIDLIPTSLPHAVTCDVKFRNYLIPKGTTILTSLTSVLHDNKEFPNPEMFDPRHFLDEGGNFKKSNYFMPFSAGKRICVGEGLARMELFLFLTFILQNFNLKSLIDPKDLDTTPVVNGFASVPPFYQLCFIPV

Compound	effect on adenoid cystic carcinomas of the salivary gland [1]	inhibition of CYP2C19 (CYP2C19)	inhibition of CYP2A6 (CYP2A6)	Non-responders (NR) (ER+/HER2− metastatic BC)	Responders (R) (ER+/HER2− metastatic BC)
Cc1ccc(NC(=O)c2ccc(CN3CCN(C)CC3)cc2)cc1Nc1nccc(-c2cccnc2)n1 [imatinib]	no effect				
N#Cc1ccc(C(c2ccc(C#N)cc2)n2cncn2)cc1 [letrozole]		inhibits	inhibits		
CC(=O)c1c(C)c2cnc(Nc3ccc(N4CCNCC4)cn3)nc2n(C2CCCC2)c1=O [palbociclib]				3 patients	7
CN(C)C(=O)c1cc2cnc(Nc3ccc(N4CCNCC4)cn3)nc2n1C1CCCC1 [ribociclib]				7 patients and 6 patients	8
